Patent publication US20120083472A1, “PHARMACEUTICAL COMPOSITION FOR PROMOTING THE HEALING OF WOUNDS AND CONTAINING LYSOPHOSPHATIDIC ACID AND AN ADENYLYL CYCLASE INHIBITOR AS ACTIVE INGREDIENTS” (SNU R&DB FOUNDATION, priority 2009, published 2012)

Experiments:
[1] = test system: cAMP level in young and senescent fibroblasts; test: Measurement of cyclic AMP (cAMP) by competitive binding assay; format: cell-based, human
Protocol: Sub-cultured young (PD 20) and senescent (PD 65) fibroblasts were treated with various concentrations of ACI for 1 hr. The level of cAMP in the acid extracts was measured by using a cAMP binding assay. The results shown represent the means±standard deviation of a representative experiment.
(§1) Human umbilical vein endothelial cells (HUVEC) were isolated from endothelial cells of umbilical cords as described by Whang et al (Whang et al., 2005). Foreskin human fibroblasts and keratinocytes were isolated from newborn foreskins as described by Boyce and Ham (Boyce and Ham, 1983). Patient consents were obtained from all donors and the use of tissue samples was approved by the ethics committee of the Seoul National University. The obtained and isolated fibroblasts and HUVEC were maintained in DMEM containing 10% fetal bovine serum (FBS) and antibiotics, and keratinotyes were in keratinocyte growth medium (KGM) containing antibiotics. Cells from the early stage of culture were cultured to obtain aged cells, which were used in experiments (population doubling -PD- of less than 25 vs PD 65-70 in fibroblasts, PD less than 5 vs PD 10-12 in case of HUVEC). Senescent cells were characterized by morphological changes, enhanced […]β-galactosidase activity and a reduced rate of proliferation (Yeo et al., 2000). Cells were grown for 2 days to 60-70% sub-confluency in the culture medium after treatment with LPA or ACI, and then serum-starved to quiescence by incubating them with either serum free DMEM containing 0.1% BSA (fibroblasts or HUVEC) or KBM (keratinocytes) for 2 days.
After removing the medium, 2.5 M of perchloric acid was added into the plate. The obtained acid extract was stored at […] until use, when the extract was neutralized with 4.2 M KOH and the cAMP content was determined by competitive binding with [^3H]-cAMP to the cAMP binding protein, RIα[…] of cAMP-dependent protein kinase (Jang and Juhnn, 2001). After the extraction, cells were lysed with 0.1 N NaOH and protein content was determined using Bradford protein assay reagent. The cAMP content was normalized versus the amount of acid-insoluble protein (expressed as the content of cAMP per protein concentration).

[2] = test system: young and senescent fibroblasts, HUVEC, skin keratinocytes; test: Cell growth / proliferation (cell number count); format: cell-based, human; settings: for cell number in senescent cells of various cell types: senescent fibroblasts, old donor fibroblasts, HUVEC, keratinocytes, degree depends on cell type (FIG. 5)
Protocol: Sub-cultured young (PD 25, A) and senescent (PD 73, B) fibroblasts were serum-starved for 2 days and treated with LPA, 1 mM of dbcAMP (+dbcAMP), or 300 μM of ACI SQ22536 (+ACI) for 4 days. The number of cells was counted. The results shown represent the means±standard deviation of a representative experiment.
Sub-cultured young (PD 25) and senescent (PD 73) cells (A), fibroblasts from young and elderly donors (B), HUVEC (C) and skin keratinocytes (D) were serum-starved for 2 days and treated with LPA, and then treated with 1 mM of dibutyryl-cAMP, or 300 μM of ACI (SQ22536) for 4 days. The number of cells was counted. The results shown represent the means±standard deviation of a representative experiment.
as §1

[3] = test system: young and senescent fibroblasts, HUVEC, skin keratinocytes; test: DNA synthesis ([3H]-thymidine incorporation); format: cell-based, human; settings: for basal and LPA-stimulated DNA synthesis in senescent cells: 1 mM dbcAMP or 300 μM ACI 2 hrs, then 30 μM LPA (FIG. 4A)
Protocol: as §1, with “Sub-cultured young (PD 25) and senescent (PD 73) cells (A), skin fibroblasts from young and elderly donors (B), HUVEC (C) and skin keratinocytes (D) were serum-starved for 2 days and treated with 1 mM of dibutyryl-cAMP (dbcAMP), or 300 […]μM of ACI (SQ22536) for 2 hrs. Cells were then treated with 30 μM of LPA in the presence of 0.5 μCi/ml of [^3H]-radioactive isotope. The radioactivity incorporated into the DNA was counted and fold increase of radioactive isotope incorporation was calculated and plotted. The results shown represent the means±standard deviation of a representative experiment. Human” for “Human”, “days. […] Radioactivity in the neutralized lysates was counted in a liquid scintillation cocktail. The measured radioactivity as such was compared to that of control to find the synthesis degree of […].” for “days.”

[4] = test system: young and senescent fibroblasts (HDFs); test: In vitro wound healing assay (cell migration into acellular area); format: cell-based, human; settings: for migration of senescent cells / migration of young cells: serum-starved; for migration of senescent cells: LPA 30 μM, ACI 300 μM, 72 hrs (FIGS. 6B, 6D); for migration of young cells: LPA 30 μM or ACI 300 μM, up to 72 hrs (FIGS. 6A, 6C)
Protocol: Sub-cultured young (A, C) and senescent cells (B, D) were serum-starved for 2 days and treated with ACI or dbcAMP (1 mM) for 2 hr at 37° C. An area was denuded by a yellow tip and the cells were then treated with LPA (30 μM) and incubated at 37° C. Photographs were taken at 6 hrs, 12 hrs, 18 hrs, 24 hrs, 30 hrs, 36 hrs, 42 hrs, 60 hrs, and 72 hrs, and the number of cells migrated into the acellular area was counted and the average values were plotted in A and B. The data at 72 hrs were replotted in a bar graph to show the significant changes induced by treating cells with either LPA or ACI, or both (C and D). The results shown represent the means±standard deviation of a representative experiment. Cell migration from each group (p<0.001) was compared to the control value the migration was read as having a significance.
LPA-induced cell migration was assessed by the ability of the cells to move into an acellular area (Shiraha et al., 2000). Cells were plated on a 10-cm plastic dish and grown to 70-80% confluence in the culture media with 10% FBS. After a 2-day quiescence in serum free media with 0.1% BSA, cells were pretreated with vehicle, ACI (300 μM), or dbcAMP (1 mM) for 2 hrs at 37° C. An area was denuded by a tip and the cells were then incubated at 37° C. without or with LPA (30 μM). Photographs were taken at 6 hrs, 12 hrs, 18 hrs, 24 hrs, 30 hrs, 36 hrs, 42 hrs, 60 hrs, and 72 hrs, and the number of cells migrating to the acellular area was counted.

[5] = test system: skin wounds of young and aged Fisher 344 rats; test: Skin wound healing in young and aged rats (photographs, H & E, PCNA staining); format: in vivo, rat; settings: for epithelialization (H & E) of aged wounded rats: day 4, compared to control untreated groups; for PCNA staining in aged rats: wound sections, versus very weak staining in control aged rats; for number of PCNA positive cells / wound healing rate (photographs of wounds): young and aged rats; for number of PCNA positive cells: wound sections (FIG. 9B, 9C); for wound healing rate (photographs of wounds): LPA 30 μM, ACI 300 μM, 200 μl topical once per two days, 4th day (FIG. 7)
Protocol: Rats were anesthetized with intraperitoneal injection of ketamine and xylazine. The back was shaved (A) and four full-thickness circular skin wounds of 1.0 cm diameter were cut (B). A teflon wound chamber was glued into the edge of the skin and then sewn using a […] (C).
Young and old rats were anesthetized and wounded as described in the legend of FIG. 1. 200 μl aliquots of the solutions containing LPA (30 μM), ACI (300 μM), and the mixture of LPA and ACI dissolved in physiological saline were applied onto wound sites using a sterile glass filter in each wound chamber once per two days. After 4 days, the wounds were photographed.
Young and old rats were anesthetized and wounded as described in the legend of FIG. 1. The wounds were treated with LPA (30 μM), ACI (300 μM), or the mixture of LPA and ACI as described in the legend of FIG. 1c. On postoperative days 4, animals were anesthetized and killed as described in “Materials and Methods”. Approximately 5-mm-thick section across the dorsoventral diameter of the wound was cut and fixed and embedded in paraffin. Serial sections were cut and processed for hematoxylin-eosin (H & E) staining. H & E stained epithelial layer was visualized on the top of each section.
Young and aged rats were anesthetized and wounded as described in the legend of FIG. 1. The wounds were treated with LPA (30 μM), ACI (300 μM), or the mixture of LPA and ACI as described in the legend of FIG. 1c. On postoperative days 2, 4, and 7, animals were anesthetized and killed as described in “Materials and Methods”. An about 5-mm-thick section across the dorsoventral diameter of the wound was cut and fixed and embedded in paraffin. Serial sections were cut and processed for immunohistochemistry using PCNA as described in “Materials and Methods”. The presence of PCNA was visualized by using avidin-biotin peroxidase complex method and the control was counterstained with hematoxylin. The photographs from postoperative days 4 are shown in A. The number of PCNA positive cell was counted from each photograph and plotted in B (young rats) and C (aged rats).
Rats aged 6 months and 24 months which were used in experiments were purchased from Samtaco BioKorea (Seoul, Korea) and housed two per cage in a room with controlled temperature and humidity with a 12:12-h light-dark cycle. They were maintained on a standard diet with food and water ad libitum in an animal facility accredited by the Korean Association for Accreditation of Laboratory Animal Care. Animals were divided into treatment groups, each consisting of nine, and used in experiments.
Rats were anesthetized with intraperitoneal injection of ketamine and xylazine (87/13 mg/kg). Skin wounding and its protection was performed as described by Balazs (Balazs et al., 2001). By the dermabrasion technique using diamond bar, four second-degreed partial thickness circular wounds of 1.0 cm. A teflon wound chamber with a 1.2 cm inner diameter centered around the wound was glued into the edge of the skin with Histoacryl and then sewn using a surgical nylon suture (Ethicon 4-0) (FIG. 1C). In order to protect wound site, upon treatment with LPA or ACI, they were sprayed using a sterile filter (GF-C Whatman), followed by treatment. This work was carried out by a single plastic surgeon for consistency and exactness of experiments. 30 μM of LPA, 300 μM of ACI, and the mixture of LPA (30 μM) and ACI (300 μM) are dissolved in physiological saline to be a 200-μl aliquot, respectively. The 200-μl aliquot, corresponding to 30 pmol/mm^2, was applied […] into the wound of the animals anesthetized with inhalation. The contralateral side received 200 μl of saline as a control. […]
Serial sections (4 […]μm thick) were cut and processed for hematoxylin-eosin (H & E) and immunohistological staining. Paraffin sections on the microslides were deparaffinized in xylene and rehydrated sequentially in alcohol. […]

cAMP levels at 300 μM ([1]; 300 μM ACI, both young and senescent cells (FIG. 2)) | cAMP levels ([1]; various concentrations of ACI, 1 hr, young (PD 20) and senescent (PD 65) fibroblasts (FIG. 2)) | Compound | concentration of cAMP in aged cells upon treatment with ACI ([1]; aged fibroblasts, ACI) | proliferation of aged cells compared to treatment with LPA ([2]; aged fibroblasts) | cell number in senescent cells following ACI treatment ([2]; senescent fibroblasts (PD 73), 300 μM ACI, 4 days, unlike young cells (FIG. 3B)) | cell number in senescent cells of various cell types ([2]; 4 days) | basal and LPA-stimulated DNA synthesis in senescent cells [3] | thymidine incorporation, basal and LPA-stimulation conditions ([3]; young and aged fibroblasts, HUVEC and keratinocytes, 300 μM ACI (FIG. 4)) | migration of senescent cells [4] | migration of young cells [4] | epithelialization (H & E) of aged wounded rats [5] | PCNA staining in aged rats [5] | number of PCNA positive cells [5] | wound healing rate (photographs of wounds) [5] | concentration of cAMP in aged cells ([1]; aged fibroblasts, treatment with LPA) | concentration of cAMP in young cells ([1]; young fibroblasts, treatment with LPA) | cell number (proliferation) ([2]; LPA 1-70 μM, 4 days, young and senescent fibroblasts (FIG. 3)) | LPA-induced proliferation ([2]; both young and senescent cells, 1 mM dbcAMP after LPA, 4 days (FIG. 3)) | LPA-induced cell migration ([4]; dbcAMP 1 mM with LPA 30 μM) | basal cell migration ([4]; young and senescent cells, 1 mM dbcAMP)
complete abrogation | dose-dependently reduced cAMP levels | Nc1ncnc2c1ncn2C1CCCO1 (stereo not shown) [ACI, 9-(tetrahydro-2′-furyl)adenine] | again lowered | more increased | significant increase in the cell number | further enhanced | increased | enhanced the thymidine incorporation | increase in cell migration | unaltered | higher | increased significantly | increased significantly | faster than the untreated controls | – | – | – | – | – | –
– | – | lysophosphatidic acid [LPA] | – | – | – | further enhanced | – | – | increased senescent cell migration at 72 hrs significantly | migration of cells is increased | higher | increased significantly | increased significantly | faster than the untreated controls | increased | lowered | induces proliferation of both young and senescent cells in a dose-dependent manner | – | – | –
– | – | CCCC(=O)Nc1ncnc2c1ncn2[C@@H]1O[C@@H]2COP(=O)(O)O[C@H]2[C@H]1OC(=O)CCC [dbcAMP, dibutyryl cAMP] | – | – | – | – | decreased | – | – | – | – | – | – | – | – | – | – | decreased | reduced | did not significantly affect
